pIC50: −log10 of the molar value. Values after ≈ are worked out from the molar mass of the structure shown.
How the values were obtained:
[1] = test system: HIV-1 wild-type (R8) virus; test: Viral KINetics in Green cells (VIKING) assay, HIV-1 replication in MT4-GFP reporter cells; assay type: cell-based; conditions: Human immunodeficiency virus 1, 10% normal human serum, MT4-GFP cells, HIV-1 wild-type (R8); read-out: Viking (10% NHS), IC50
In short: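 MT4-GFP cells infected overnight with HIV-1 R8 at MOI ~0.01, then added to compound plates in RPMI with 10% normal human serum; 10-point 3-fold dilutions (typically 4 μM-0.2 nM). Green cells counted at ~48 h and 72 h; reproductive ratio (72 h/48 h) gave % inhibition, IC50 by 4-parameter fit.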

[2] = Aqueous solubility in PBS, pH 7.4; assay type: physicochemical; conditions: phosphate buffered saline, pH 7.4, aqueous buffer, thermodynamic from solid, pH 7.4 phosphate buffered saline, 24 hours, amorphous or crystalline material; read-out: Aqu. Solubility
Protocol: Aqueous solubility of the compounds was determined by suspending excess solid (typically 0.3-0.5 mg) in PBS, pH 7.4, at a concentration of 0.5 mg/mL. The suspension was vortexed for 10-30 seconds to wet the material and stirred at 600 rpm for 24 hours. For analysis by UPLC, 150 μL aliquot sample was transferred into a […] PVDF spin filter and centrifuged at 14,000 rpm for 5 minutes. 100 μL of the filtrate was diluted with 100 μL 1:1 Acetonitrile (ACN):H2O. The resultant samples were analyzed using UPLC and quantified against a standard curve of the compound of interest dissolved in 1:1 ACN:H2O. The retains of the solids were checked by XRPD and PLM to determine if the phase of the material was crystalline or amorphous.

Structure (SMILES)	pIC50 [1]	solubility at 24 h [2] [µg/mL]
C#C[C@]1(CO)O[C@@H](n2ccc3c(NC(=O)CCCCCCCCC)nc(Cl)nc32)C[C@@H]1O [Example 197]	7.54	< 1
C#C[C@]1(COC(=O)CCCc2ccccc2)O[C@@H](n2ccc3c(N)nc(Cl)nc32)C[C@@H]1O [Example 129]	8.51	37 (≈ 81.3 µM)
C#C[C@]1(COC(=O)CCCCC)O[C@@H](n2ccc3c(N)nc(Cl)nc32)C[C@@H]1O [Example 116]	8.38	39 (≈ 95.9 µM)
C#C[C@]1(CO)O[C@@H](n2ccc3c(NC(=O)CCc4ccccc4)nc(Cl)nc32)C[C@@H]1O [Example 200]	6.81	307 (≈ 696 µM)
C#C[C@]1(COC(=O)[C@@H](C)c2ccccc2)O[C@@H](n2ccc3c(N)nc(Cl)nc32)C[C@@H]1O [Example 101]	8.47	19 (≈ 43.1 µM)
C#C[C@]1(COC(=O)OCCCCCCCCCCCCCC)O[C@@H](n2ccc3c(N)nc(Cl)nc32)C[C@@H]1O [Example 163]	8.46	< 1
C#C[C@]1(CO)O[C@@H](n2ccc3c(N)nc(Cl)nc32)C[C@@H]1OC(=O)Cc1ccc(F)cc1 [Example 31, (2R,3S,5R)-5-(4-amino-2-chloro-7H-pyrrolo[2,3-d]pyrimidin-7-yl)-2-ethynyl-2-(hydroxymethyl)tetrahydrofuran-3-yl 2-(4-fluorophenyl)acetate]	8.34	11 (≈ 24.7 µM)
C#C[C@]1(COC(=O)CCCCC)O[C@@H](n2ccc3c(N)nc(Cl)nc32)C[C@@H]1OC(=O)CC [Example 188]	7.77	2.4 (≈ 5.18 µM)
C#C[C@]1(COC(=O)OCc2cc[nH]c(=O)c2)O[C@@H](n2ccc3c(N)nc(Cl)nc32)C[C@@H]1OC(=O)OCc1cc[nH]c(=O)c1 [Example 225]	7.89	70 (≈ 115 µM)
C#C[C@]1(COC(=O)OCc2cccnc2)O[C@@H](n2ccc3c(N)nc(Cl)nc32)C[C@@H]1CC(=O)CCCc1ccccc1 [Example 173]	8.21	< 1
C#C[C@]1(CO)O[C@@H](n2ccc3c(N)nc(Cl)nc32)C[C@@H]1OC(=O)C1CCCCC1 [Example 77]	8.30	14 (≈ 33.4 µM)
C#C[C@]1(COC(=O)OCCCCCCCC)O[C@@H](n2ccc3c(N)nc(Cl)nc32)C[C@@H]1OC(=O)CC [Example 113]	7.59	< 1
C#C[C@]1(CO)O[C@@H](n2ccc3c(N)nc(Cl)nc32)C[C@@H]1OC(=O)CCC12CC3CC(CC(C3)C1)C2 [Example 30]	8.44	< 1
C#C[C@]1(CO)O[C@@H](n2ccc3c(NC(=O)Cc4ccccc4)nc(Cl)nc32)C[C@@H]1O [Example 199]	6.64	51 (≈ 119 µM)
C#C[C@]1(CO)O[C@@H](n2ccc3c(N)nc(Cl)nc32)C[C@@H]1OC(=O)Cc1ccc(Cl)cc1 [Example 32, (2R,3S,5R)-5-(4-amino-2-chloro-7H-pyrrolo[2,3-d]pyrimidin-7-yl)-2-ethynyl-2-(hydroxymethyl)tetrahydrofuran-3-yl 2-(4-chlorophenyl)acetate]	8.29	3.7 (≈ 8.02 µM)
C#C[C@]1(COC(=O)c2ccccn2)O[C@@H](n2ccc3c(N)nc(Cl)nc32)C[C@@H]1OC(=O)c1ccccn1 [Example 49, (2R,3S,5R)-5-(4-amino-2-chloro-7H-pyrrolo[2,3-d]pyrimidin-7-yl)-2-ethynyl-2-((picolinoyloxy)methyl)tetrahydrofuran-3-yl picolinate]	8.12	49 (≈ 94.4 µM)
C#C[C@]1(CO)O[C@@H](n2ccc3c(N)nc(Cl)nc32)C[C@@H]1OC(=O)C(CCC)CCC [Example 52, (2R,3S,5R)-5-(4-amino-2-chloro-7H-pyrrolo[2,3-d]pyrimidin-7-yl)-2-ethynyl-2-(hydroxymethyl)tetrahydrofuran-3-yl 2-propylpentanoate]	6.47	2.4 (≈ 5.52 µM)
C#C[C@]1(COC(=O)OCc2ccccc2)O[C@@H](n2ccc3c(N)nc(Cl)nc32)C[C@@H]1OC(=O)OCCCC [Example 212]	8.32	< 1

Structure (SMILES)	pIC50 [1]	solubility at 24 h [2] [µg/mL]
C#C[C@]1(COC(=O)Cc2ccc(Cl)cc2)O[C@@H](n2ccc3c(N)nc(Cl)nc32)C[C@@H]1OC(=O)Cc1ccc(Cl)cc1 [Example 34, (2R,3S,5R)-5-(4-amino-2-chloro-7H-pyrrolo[2,3-d]pyrimidin-7-yl)-2-((2-(4-chlorophenyl)acetoxy)methyl)-2-ethynyltetrahydrofuran-3-yl 2-(4-chlorophenyl)acetate]	8.21	< 1
C#C[C@]1(COC(=O)CCCCCCCCCCCCCCC)O[C@@H](n2ccc3c(N)nc(Cl)nc32)C[C@@H]1O [Example 16, ((2R,3S,5R)-5-(4-amino-2-chloro-7H-pyrrolo[2,3-d]pyrimidin-7-yl)-2-ethynyl-3-hydroxytetrahydrofuran-2-yl)methyl palmitate]	8.25	< 1
C#C[C@]1(CO)O[C@@H](n2ccc3c(N)nc(Cl)nc32)C[C@@H]1OC(=O)Cc1ccc(Br)cc1 [Example 181]	8.40	< 1
C#C[C@]1(CO)O[C@@H](n2ccc3c(N)nc(Cl)nc32)C[C@@H]1OC(=O)CCCCCCCCCCC [Example 25, (2R,3S,5R)-5-(4-amino-2-chloro-7H-pyrrolo[2,3-d]pyrimidin-7-yl)-2-ethynyl-2-(hydroxymethyl)tetrahydrofuran-3-yl dodecanoate]	8.46	2 (≈ 4.07 µM)
C#C[C@]1(CO)O[C@@H](n2ccc3c(N)nc(Cl)nc32)C[C@@H]1OC(=O)CCCCCC [Example 58, (2R,3S,5R)-5-(4-amino-2-chloro-7H-pyrrolo[2,3-d]pyrimidin-7-yl)-2-ethynyl-2-(hydroxymethyl)tetrahydrofuran-3-yl heptanoate]	8.72	< 1
C#C[C@]1(CO)O[C@@H](n2ccc3c(N)nc(Cl)nc32)C[C@@H]1OC(=O)OCCc1ccccc1 [Example 64, (2R,3S,5R)-5-(4-amino-2-chloro-7H-pyrrolo[2,3-d]pyrimidin-7-yl)-2-ethynyl-2-(hydroxymethyl)tetrahydrofuran-3-yl phenethyl carbonate]	8.34	< 1
C#C[C@]1(CO)O[C@@H](n2ccc3c(N)nc(Cl)nc32)C[C@@H]1OC(=O)OCCCCC [Example 13, (2R,3S,5R)-5-(4-amino-2-chloro-7H-pyrrolo[2,3-d]pyrimidin-7-yl)-2-ethynyl-2-(hydroxymethyl)tetrahydrofuran-3-yl pentyl carbonate]	8.66	1.9 (≈ 4.49 µM)
C#C[C@]1(COC(=O)Cc2ccc(Cl)cc2)O[C@@H](n2ccc3c(N)nc(Cl)nc32)C[C@@H]1O [Example 33, ((2R,3S,5R)-5-(4-amino-2-chloro-7H-pyrrolo[2,3-d]pyrimidin-7-yl)-2-ethynyl-3-hydroxytetrahydrofuran-2-yl)methyl 2-(4-chlorophenyl)acetate]	8.62	41 (≈ 88.9 µM)
C#C[C@]1(CO)O[C@@H](n2ccc3c(N)nc(Cl)nc32)C[C@@H]1OC(=O)CCC [Example 179]	7.96	27 (≈ 71.3 µM)
C#C[C@]1(COC(=O)OCc2ccccc2)O[C@@H](n2ccc3c(N)nc(Cl)nc32)C[C@@H]1OC(=O)OCCCCCCCC [Example 213]	8.10	< 1
C#C[C@]1(COC(=O)OCc2ccccc2)O[C@@H](n2ccc3c(N)nc(Cl)nc32)C[C@@H]1OC(=O)OCc1cccnc1 [Example 174]	7.89	< 1
C#C[C@]1(COC(=O)OCCCCC[C@@H]2SC[C@@H]3NC(=O)N[C@@H]32)O[C@@H](n2ccc3c(N)nc(Cl)nc32)C[C@@H]1OC(=O)OCCCCC[C@@H]1SC[C@@H]2NC(=O)N[C@@H]21 [Example 207]	7.68	1.2 (≈ 1.46 µM)
C#C[C@]1(COC(=O)Cc2ccc(Br)cc2)O[C@@H](n2ccc3c(N)nc(Cl)nc32)C[C@@H]1O [Example 73, ((2R,3S,5R)-5-(4-amino-2-chloro-7H-pyrrolo[2,3-d]pyrimidin-7-yl)-2-ethynyl-3-hydroxytetrahydrofuran-2-yl)methyl 2-(4-bromophenyl)acetate]	8.49	24 (≈ 47.5 µM)
C#C[C@]1(COCOC(=O)CCCCCCCCC)O[C@@H](n2ccc3c(N)nc(Cl)nc32)C[C@@H]1O [Example 136]	8.49	< 1
C#C[C@]1(COCOC(=O)OC(C)C)O[C@@H](n2ccc3c(N)nc(Cl)nc32)C[C@@H]1O [Example 133]	8.57	341 (≈ 803 µM)
C#C[C@]1(COC(=O)CCCCCCCCCCC)O[C@@H](n2ccc3c(N)nc(Cl)nc32)C[C@@H]1O [Example 90]	8.41	< 1
C#C[C@]1(CO)O[C@@H](n2ccc3c(N)nc(Cl)nc32)C[C@@H]1OC(=O)OCCCCCC [Example 61, (2R,3S,5R)-5-(4-amino-2-chloro-7H-pyrrolo[2,3-d]pyrimidin-7-yl)-2-ethynyl-2-(hydroxymethyl)tetrahydrofuran-3-yl hexyl carbonate]	8.35	< 1
